{"source": "patent US6355799B1", "about": "“Substituted benzene compounds, process for their preparation, and herbicidal and defoliant compositions containing them” (ISK Americas Incorporated, priority 1997, dated 2002)", "format_in_all_cases": "in vivo", "key": {"[1]": {"system": "field corn (Zea mays L., var. Dekalb 535, CORN)", "experiment": "Post-emerge test, crop safety", "settings": "post-emerge, 14 days after application, rating scale 0-100", "in_short": "(§1)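 Visual ratings on a 0-100 scale (0 no damage, 100 all plants dead) were taken at 14 days after treatment. Rates of 15-1000 g ai/ha in acetone, 187 l/ha, were sprayed onto soil one day after planting (pre-emerge) or onto 2-3 leaf plants with 0.25% v/v surfactant (post-emerge).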"}, "[2]": {"system": "upland rice (Oryza sp., var. Tebonnet, RICE)", "experiment": "Post-emerge test, crop safety", "settings": "post-emerge, 14 days after application, rating scale 0-100", "in_short": "as §1"}, "[3]": {"system": "redroot pigweed (Amaranthus retroflexus, AMARE)", "experiment": "Pre-emerge test, greenhouse herbicide activity screening", "settings": "pre-emerge, 14 days after application, rating scale 0-100", "in_short": "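Herbicidal damage is scored 0 (none) to 100 (complete plant death) two weeks after a simulated field spray. Rates span 15–1000 g ai/ha, delivered in acetone at 187 l/ha. For post-emergence treatments, plants have 2–3 leaves and the spray carries 0.25% v/v non-ionic surfactant.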"}, "[4]": {"system": "ivyleaf morningglory (Ipomoea hederacea, IPOHE)", "experiment": "Post-emerge test, greenhouse herbicide activity screening", "settings": "post-emerge, 14 days after application, rating scale 0-100", "in_short": "(§2)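 Plants grown in 10 cm pots of sandy loam mix received acetone-dissolved compounds through a moving flat-fan nozzle. Doses ranged from 15 to 1000 g ai/ha. Pre-emerge pots were seeded one day earlier, post-emerge pots 8–21 days earlier. Fourteen days on, each pot was graded 0–100 for damage.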"}, "[5]": {"system": "johnsongrass (Sorghum halepense, SORHA)", "experiment": "Post-emerge test, greenhouse herbicide activity screening", "settings": "post-emerge, 14 days after application, rating scale 0-100", "in_short": "as §2"}, "[6]": {"system": "velvetleaf (Abutilon theophrasti, ABUTH)", "experiment": "Post-emerge test, greenhouse herbicide activity screening", "settings": "post-emerge, 14 days after application, rating scale 0-100", "in_short": "as §2"}, "[7]": {"system": "sicklepod (Cassia obtusifolia, CASOB)", "experiment": "Post-emerge test, greenhouse herbicide activity screening", "settings": "post-emerge, 14 days after application, rating scale 0-100", "in_short": "as §2"}, "[8]": {"system": "large crabgrass (Digitaria sanguinalis, DIGSA)", "experiment": "Post-emerge test, greenhouse herbicide activity screening", "settings": "post-emerge, 14 days after application, rating scale 0-100", "in_short": "as §2"}, "[9]": {"system": "barnyardgrass (Echinochloa crus-galli, ECHCG)", "experiment": "Post-emerge test, greenhouse herbicide activity screening", "settings": "post-emerge, 14 days after application, rating scale 0-100", "in_short": "as §2"}, "[10]": {"system": "lambsquarters (Chenopodium album, CHEAL)", "experiment": "Post-emerge test, greenhouse herbicide activity screening", "settings": "post-emerge, 14 days after application, rating scale 0-100", "in_short": "as §2"}, "[11]": {"system": "redroot pigweed (Amaranthus retroflexus, AMARE)", "experiment": "Post-emerge test, greenhouse herbicide activity screening", "settings": "post-emerge, 14 days after application", "in_short": "as §2"}, "[12]": {"system": "green foxtail (Setaria viridis, SETVI)", "experiment": "Post-emerge test, greenhouse herbicide activity screening", "settings": "post-emerge, 14 days after application, rating scale 0-100", "in_short": "as §2"}, "[13]": {"system": "ivyleaf morningglory (Ipomoea hederacea, IPOHE)", "experiment": "Pre-emerge test, greenhouse herbicide activity screening", "settings": "pre-emerge, 14 days after application, rating scale 0-100", "in_short": "as §1"}, "[14]": {"system": "johnsongrass (Sorghum halepense, SORHA)", "experiment": "Pre-emerge test, greenhouse herbicide activity screening", "settings": "pre-emerge, 14 days after application, rating scale 0-100", "in_short": "as §1"}, "[15]": {"system": "velvetleaf (Abutilon theophrasti, ABUTH)", "experiment": "Pre-emerge test, greenhouse herbicide activity screening", "settings": "pre-emerge, 14 days after application, rating scale 0-100", "in_short": "as §1"}, "[16]": {"system": "sicklepod (Cassia obtusifolia, CASOB)", "experiment": "Pre-emerge test, greenhouse herbicide activity screening", "settings": "pre-emerge, 14 days after application, rating scale 0-100", "in_short": "as §1"}, "[17]": {"system": "large crabgrass (Digitaria sanguinalis, DIGSA)", "experiment": "Pre-emerge test, greenhouse herbicide activity screening", "settings": "pre-emerge, 14 days after application, rating scale 0-100", "in_short": "as §1"}, "[18]": {"system": "barnyardgrass (Echinochloa crus-galli, ECHCG)", "experiment": "Pre-emerge test, greenhouse herbicide activity screening", "settings": "pre-emerge, 14 days after application, rating scale 0-100", "in_short": "as §1"}, "[19]": {"system": "lambsquarters (Chenopodium album, CHEAL)", "experiment": "Pre-emerge test, greenhouse herbicide activity screening", "settings": "pre-emerge, 14 days after application, rating scale 0-100", "in_short": "as §1"}, "[20]": {"system": "green foxtail (Setaria viridis, SETVI)", "experiment": "Pre-emerge test, greenhouse herbicide activity screening", "settings": "pre-emerge, 14 days after application, rating scale 0-100", "in_short": "as §1"}, "[21]": {"system": "field corn (Zea mays L., var. Dekalb 535, CORN)", "experiment": "Pre-emerge test, crop safety", "settings": "pre-emerge, 14 days after application, rating scale 0-100", "in_short": "(§3)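 Rating: 0–100 visual injury, 14 DAA. Application: acetone, 187 l/ha, 15–1000 g ai/ha, flat-fan track sprayer with nozzle 40–45 cm above soil or canopy. Post-emerge runs used 0.25% v/v surfactant on 2–3 leaf plants.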"}, "[22]": {"system": "upland rice (Oryza sp., var. Tebonnet, RICE)", "experiment": "Pre-emerge test, crop safety", "settings": "pre-emerge, 14 days after application, rating scale 0-100", "in_short": "as §3"}}}
{"compound": "CCOC(=O)C(Cl)Cc1cc(Cl)cc(F)c1-n1c(=O)cc(C(F)(F)F)n(C)c1=O", "note": "(centres unmarked) [14-60]", "values": [{"measurement": "Post-emerge Herbicidal Activity CORN (crop damage rating)", "setting": "[1]; 63 g ai/ha", "value": 0}, {"measurement": "Post-emerge Herbicidal Activity CORN (crop damage rating)", "setting": "[1]; 250 g ai/ha", "value": 60}, {"measurement": "Post-emerge Herbicidal Activity RICE (crop damage rating)", "setting": "[2]; 63 g ai/ha", "value": 10}, {"measurement": "Post-emerge Herbicidal Activity RICE (crop damage rating)", "setting": "[2]; 250 g ai/ha", "value": 20}, {"measurement": "phytotoxicity rating AMARE", "setting": "[3]; 63 g ai/ha", "value": 100}, {"measurement": "phytotoxicity rating AMARE", "setting": "[3]; 250 g ai/ha", "value": 100}, {"measurement": "Post-emerge Herbicidal Activity IPOHE (phytotoxicity rating)", "setting": "[4]; 63 g ai/ha", "value": 100}, {"measurement": "Post-emerge Herbicidal Activity IPOHE (phytotoxicity rating)", "setting": "[4]; 250 g ai/ha", "value": 100}, {"measurement": "Post-emerge Herbicidal Activity SORHA (phytotoxicity rating)", "setting": "[5]; 63 g ai/ha", "value": 20}, {"measurement": "Post-emerge Herbicidal Activity SORHA (phytotoxicity rating)", "setting": "[5]; 250 g ai/ha", "value": 50}, {"measurement": "Post-emerge Herbicidal Activity ABUTH (phytotoxicity rating)", "setting": "[6]; 63 g ai/ha", "value": 100}, {"measurement": "Post-emerge Herbicidal Activity ABUTH (phytotoxicity rating)", "setting": "[6]; 250 g ai/ha", "value": 100}, {"measurement": "Post-emerge Herbicidal Activity CASOB (phytotoxicity rating)", "setting": "[7]; 63 g ai/ha", "value": 40}, {"measurement": "Post-emerge Herbicidal Activity CASOB (phytotoxicity rating)", "setting": "[7]; 250 g ai/ha", "value": 70}, {"measurement": "Post-emerge Herbicidal Activity DIGSA (phytotoxicity rating)", "setting": "[8]; 63 g ai/ha", "value": 10}, {"measurement": "Post-emerge Herbicidal Activity DIGSA (phytotoxicity rating)", "setting": "[8]; 250 g ai/ha", "value": 60}, {"measurement": "Post-emerge Herbicidal Activity ECHCG (phytotoxicity rating)", "setting": "[9]; 63 g ai/ha", "value": 50}, {"measurement": "Post-emerge Herbicidal Activity ECHCG (phytotoxicity rating)", "setting": "[9]; 250 g ai/ha", "value": 75}, {"measurement": "Post-emerge Herbicidal Activity CHEAL (phytotoxicity rating)", "setting": "[10]; 63 g ai/ha", "value": 99}, {"measurement": "Post-emerge Herbicidal Activity CHEAL (phytotoxicity rating)", "setting": "[10]; 250 g ai/ha", "value": 100}, {"measurement": "Post-emerge Herbicidal Activity AMARE (phytotoxicity rating)", "setting": "[11]; 63 g ai/ha, rating scale 0-100 (0 no damage, 100 complete death)", "value": 70}, {"measurement": "Post-emerge Herbicidal Activity AMARE (phytotoxicity rating)", "setting": "[11]; 250 g ai/ha, rating scale 0-100", "value": 100}, {"measurement": "Post-emerge Herbicidal Activity SETVI (phytotoxicity rating)", "setting": "[12]; 63 g ai/ha", "value": 20}, {"measurement": "Post-emerge Herbicidal Activity SETVI (phytotoxicity rating)", "setting": "[12]; 250 g ai/ha", "value": 30}, {"measurement": "phytotoxicity rating IPOHE", "setting": "[13]; 63 g ai/ha", "value": 90}, {"measurement": "phytotoxicity rating IPOHE", "setting": "[13]; 250 g ai/ha", "value": 100}, {"measurement": "phytotoxicity rating SORHA", "setting": "[14]; 63 g ai/ha", "value": 0}, {"measurement": "phytotoxicity rating SORHA", "setting": "[14]; 250 g ai/ha", "value": 10}, {"measurement": "phytotoxicity rating ABUTH", "setting": "[15]; 63 g ai/ha", "value": 100}, {"measurement": "phytotoxicity rating ABUTH", "setting": "[15]; 250 g ai/ha", "value": 100}, {"measurement": "phytotoxicity rating CASOB", "setting": "[16]; 63 g ai/ha", "value": 0}, {"measurement": "phytotoxicity rating CASOB", "setting": "[16]; 250 g ai/ha", "value": 0}, {"measurement": "phytotoxicity rating DIGSA", "setting": "[17]; 63 g ai/ha", "value": 0}, {"measurement": "phytotoxicity rating DIGSA", "setting": "[17]; 250 g ai/ha", "value": 30}, {"measurement": "phytotoxicity rating ECHCG", "setting": "[18]; 63 g ai/ha", "value": 0}, {"measurement": "phytotoxicity rating ECHCG", "setting": "[18]; 250 g ai/ha", "value": 20}, {"measurement": "phytotoxicity rating CHEAL", "setting": "[19]; 63 g ai/ha", "value": 100}, {"measurement": "phytotoxicity rating CHEAL", "setting": "[19]; 250 g ai/ha", "value": 100}, {"measurement": "phytotoxicity rating SETVI", "setting": "[20]; 63 g ai/ha", "value": 10}, {"measurement": "phytotoxicity rating SETVI", "setting": "[20]; 250 g ai/ha", "value": 60}, {"measurement": "phytotoxicity rating CORN", "setting": "[21]; 63 g ai/ha", "value": 0}, {"measurement": "phytotoxicity rating CORN", "setting": "[21]; 250 g ai/ha", "value": 0}, {"measurement": "phytotoxicity rating RICE", "setting": "[22]; 63 g ai/ha", "value": 0}, {"measurement": "phytotoxicity rating RICE", "setting": "[22]; 250 g ai/ha", "value": 20}]}
